{
  "source": "ChEMBL document CHEMBL6109039",
  "about": "“Designed and synthesized novel tripeptides targeting diabetes and its related pathologies” (Eur J Med Chem, 2025)",
  "type_in_all_cases": "functional",
  "key": {"Mus musculus [1]": {"system": "Mus musculus", "experiment": "Antidiabetic activity in Nicotinamide/Streptozotocin induced male Balb/c mouse model assessed as reduction in HDL-Cholesterol level in blood at 10 mg/kg, po treated for 21 days (reference value: 30 +/- 1.80 mg/dL)", "details": "time 21 day"}, "Mus musculus [2]": {"system": "Mus musculus", "experiment": "Antidiabetic activity in Nicotinamide/Streptozotocin induced male Balb/c mouse model assessed as change in body weight at 10 mg/kg, po treated for 21 days (reference value: 16.62 +/- 0.83 g)", "details": "time 21 day"}, "Mus musculus [3]": {"system": "Mus musculus", "experiment": "Antidiabetic activity in Nicotinamide/Streptozotocin induced male Balb/c mouse model assessed as reduction in alanine aminotransferase level in blood at 10 mg/kg, po treated for 21 days (reference value: 111 +/- 5.05 U/L)", "details": "time 21 day"}, "Mus musculus [4]": {"system": "Mus musculus", "experiment": "Antidiabetic activity in Nicotinamide/Streptozotocin induced male Balb/c mouse model assessed as reduction in fasting blood glucose levels at 10 mg/kg, po measured immediately by glucometer analysis (reference value: 127.50 +/- 6.87 mg/dl)"}, "Mus musculus [5]": {"system": "Mus musculus", "experiment": "Antidiabetic activity in Nicotinamide/Streptozotocin induced male Balb/c mouse model assessed as reduction in LDL-Cholesterol level in blood at 10 mg/kg, po treated for 21 days (reference value: 46 +/- 2.30 mg/dL)", "details": "time 21 day"}, "Mus musculus [6]": {"system": "Mus musculus", "experiment": "Antidiabetic activity in Nicotinamide/Streptozotocin induced male Balb/c mouse model assessed as Non-HDL-Cholesterol level in blood at 10 mg/kg, po treated for 21 days (reference value: 75 mg/dL)", "details": "time 21 day"}, "Mus musculus [7]": {"system": "Mus musculus", "experiment": "Antidiabetic activity in Nicotinamide/Streptozotocin induced male Balb/c mouse model assessed as reduction in HbA1c levels at 10 mg/kg, po treated for 21 days by Turbidimetric inhibition immunoassay", "parameters": "scale not given: the % may be the effect or the level left", "details": "time 21 day"}, "Mus musculus [8]": {"system": "Mus musculus", "experiment": "Antidiabetic activity in Nicotinamide/Streptozotocin induced male Balb/c mouse model assessed as reduction in fasting blood glucose levels at 10 mg/kg, po measured after 7 days by glucometer analysis (reference value: 160.5 +/- 8.02 mg/dl)", "details": "time 7 day"}, "Mus musculus [9]": {"system": "Mus musculus", "experiment": "Antidiabetic activity in Nicotinamide/Streptozotocin induced male Balb/c mouse model assessed as reduction in aspartate transaminase level in blood at 10 mg/kg, po treated for 21 days (reference value: 171 +/- 8.55 U/L)", "details": "time 21 day"}, "Mus musculus [10]": {"system": "Mus musculus", "experiment": "Antidiabetic activity in Nicotinamide/Streptozotocin induced male Balb/c mouse model assessed as relative liver weight at 10 mg/kg, po treated for 21 days (reference value: 0.77 +/- 0.04 mg/g)", "details": "time 21 day"}, "Mus musculus [11]": {"system": "Mus musculus", "experiment": "Antidiabetic activity in Nicotinamide/Streptozotocin induced male Balb/c mouse model assessed as reduction in VLDL-Cholesterol level in blood at 10 mg/kg, po treated for 21 days (reference value: 14 +/- 0.6 mg/dL)", "details": "time 21 day"}, "Mus musculus [12]": {"system": "Mus musculus", "experiment": "Antidiabetic activity in Nicotinamide/Streptozotocin induced male Balb/c mouse model assessed as reduction in fasting blood glucose levels at 10 mg/kg, po measured after 14 days by glucometer analysis (reference value: 168.5 +/- 8.42 mg/dl)", "details": "time 14 day"}, "Mus musculus [13]": {"system": "Mus musculus", "experiment": "Antidiabetic activity in Nicotinamide/Streptozotocin induced male Balb/c mouse model assessed as TC/HDL-Cholesterol ratio in blood at 10 mg/kg, po treated for 21 days (reference value: 4.03)", "details": "time 21 day"}, "Mus musculus [14]": {"system": "Mus musculus", "experiment": "Antidiabetic activity in Nicotinamide/Streptozotocin induced male Balb/c mouse model assessed as reduction in Triglycerides level in blood at 10 mg/kg, po treated for 21 days (reference value: 61 +/- 3.05 mg/dL)", "details": "time 21 day"}, "Mus musculus [15]": {"system": "Mus musculus", "experiment": "Antidiabetic activity in Nicotinamide/Streptozotocin induced male Balb/c mouse model assessed as reduction in fasting blood glucose levels at 10 mg/kg, po measured after 21 days by glucometer analysis (reference value: 180.5 +/- 9.02 mg/dl)", "details": "time 21 day"}, "Mus musculus [16]": {"system": "Mus musculus", "experiment": "Antidiabetic activity in Nicotinamide/Streptozotocin induced male Balb/c mouse model assessed as reduction in total cholesterol level in blood at 10 mg/kg, po treated for 21 days (reference value: 121 +/- 6.05 mg/dL)", "details": "time 21 day"}, "Mus musculus [17]": {"system": "Mus musculus", "experiment": "Antidiabetic activity in Nicotinamide/Streptozotocin induced male Balb/c mouse model assessed as change in body weight at 10 mg/kg, po treated for 21 days relative to control", "details": "time 21 day"}, "Mus musculus [18]": {"system": "Mus musculus", "experiment": "Antidiabetic activity in Nicotinamide/Streptozotocin induced male Balb/c mouse model assessed as change in body weight at 10 mg/kg, po measured immediately (reference value: 25.08 +/- 1.25 g)"}, "Mus musculus [19]": {"system": "Mus musculus", "experiment": "Antidiabetic activity in Nicotinamide/Streptozotocin induced male Balb/c mouse model assessed as LDL-Cholesterol/HDL Cholesterol ratio in blood at 10 mg/kg, po treated for 21 days (reference value: 1.53)", "details": "time 21 day"}},
  "data": [
    {"compound": "CCC1=C(C)CN(C(=O)NCCc2ccc(S(=O)(=O)NC(=O)N[C@H]3CC[C@H](C)CC3)cc2)C1=O", "note": "[GLIMEPIRIDE]", "values": [
      {"measurement": "Activity", "setting": "Mus musculus [1]", "value": 37, "unit": "mg/dL"},
      {"measurement": "Activity", "setting": "Mus musculus [2]", "value": 22.58, "unit": "g"},
      {"measurement": "Activity", "setting": "Mus musculus [3]", "value": 97, "unit": "U/L"},
      {"measurement": "Activity", "setting": "Mus musculus [4]", "value": 109, "unit": "mg/dL"},
      {"measurement": "Activity", "setting": "Mus musculus [5]", "value": 26, "unit": "mg/dL"},
      {"measurement": "Activity", "setting": "Mus musculus [6]", "value": 82, "unit": "mg/dL"},
      {"measurement": "Activity", "setting": "Mus musculus [7]", "value": 7.1, "unit": "%"},
      {"measurement": "Activity", "setting": "Mus musculus [8]", "value": 143.5, "unit": "mg/dL"},
      {"measurement": "Activity", "setting": "Mus musculus [9]", "value": 153, "unit": "U/L"},
      {"measurement": "Activity", "setting": "Mus musculus [10]", "value": 1.23, "unit": "mg/g"},
      {"measurement": "Activity", "setting": "Mus musculus [11]", "value": 12, "unit": "mg/dL"},
      {"measurement": "Activity", "setting": "Mus musculus [12]", "value": 108.5, "unit": "mg/dL"},
      {"measurement": "Ratio", "setting": "Mus musculus [13]", "value": 2.91},
      {"measurement": "Activity", "setting": "Mus musculus [14]", "value": 56, "unit": "mg/dL"},
      {"measurement": "Activity", "setting": "Mus musculus [15]", "value": 111.5, "unit": "mg/dL"},
      {"measurement": "Activity", "setting": "Mus musculus [16]", "value": 108, "unit": "mg/dL"},
      {"measurement": "Activity", "setting": "Mus musculus [17]", "value": 42.69, "unit": "%"},
      {"measurement": "Activity", "setting": "Mus musculus [18]", "value": 12.94, "unit": "g"},
      {"measurement": "Ratio", "setting": "Mus musculus [19]", "value": 0.702}
    ]}
  ]
}
